Test results as given in patent publication US11541057B2, “Thienopyrimidinone NMDA receptor modulators and uses thereof” (Cadent Therapeutics, Inc., priority 2015, dated 2023).

Molecular target: T1, NMDA receptor GRIN1/GRIN2B (NR2B) expressed in HEK293 cells (Homo sapiens, UniProt Q13224)
T1 construct: host or cells: HEK293
Assay: Reversal of Ro 25-6981-mediated suppression of the Ca2+ response (fluo-8 fluorescence, FDSS) in HEK293 cells expressing GRIN1 and GRIN2B
Type: cell-based
Details: % reversal=100*(R−Rneg)/(Rpos−Rneg) of Ro 25-6981 suppression of co-agonist (glutamate/glycine) Ca2+ response, 10 min pre-incubation, compound concentration not given
Method in brief: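 HEK293 with stable GRIN1 and tetracycline-induced GRIN2B, loaded with fluo-8 and preincubated 10 min with compound plus Ro 25-6981 and 5,7-dichlorokynurenic acid. Ca2+ response recorded 2 min after glutamate/glycine/CaCl2 co-agonist addition. % reversal = 100*(R−Rneg)/(Rpos−Rneg) from end fluorescence ratios.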

T1 sequence (Q13224 27-1484, other chains not shown): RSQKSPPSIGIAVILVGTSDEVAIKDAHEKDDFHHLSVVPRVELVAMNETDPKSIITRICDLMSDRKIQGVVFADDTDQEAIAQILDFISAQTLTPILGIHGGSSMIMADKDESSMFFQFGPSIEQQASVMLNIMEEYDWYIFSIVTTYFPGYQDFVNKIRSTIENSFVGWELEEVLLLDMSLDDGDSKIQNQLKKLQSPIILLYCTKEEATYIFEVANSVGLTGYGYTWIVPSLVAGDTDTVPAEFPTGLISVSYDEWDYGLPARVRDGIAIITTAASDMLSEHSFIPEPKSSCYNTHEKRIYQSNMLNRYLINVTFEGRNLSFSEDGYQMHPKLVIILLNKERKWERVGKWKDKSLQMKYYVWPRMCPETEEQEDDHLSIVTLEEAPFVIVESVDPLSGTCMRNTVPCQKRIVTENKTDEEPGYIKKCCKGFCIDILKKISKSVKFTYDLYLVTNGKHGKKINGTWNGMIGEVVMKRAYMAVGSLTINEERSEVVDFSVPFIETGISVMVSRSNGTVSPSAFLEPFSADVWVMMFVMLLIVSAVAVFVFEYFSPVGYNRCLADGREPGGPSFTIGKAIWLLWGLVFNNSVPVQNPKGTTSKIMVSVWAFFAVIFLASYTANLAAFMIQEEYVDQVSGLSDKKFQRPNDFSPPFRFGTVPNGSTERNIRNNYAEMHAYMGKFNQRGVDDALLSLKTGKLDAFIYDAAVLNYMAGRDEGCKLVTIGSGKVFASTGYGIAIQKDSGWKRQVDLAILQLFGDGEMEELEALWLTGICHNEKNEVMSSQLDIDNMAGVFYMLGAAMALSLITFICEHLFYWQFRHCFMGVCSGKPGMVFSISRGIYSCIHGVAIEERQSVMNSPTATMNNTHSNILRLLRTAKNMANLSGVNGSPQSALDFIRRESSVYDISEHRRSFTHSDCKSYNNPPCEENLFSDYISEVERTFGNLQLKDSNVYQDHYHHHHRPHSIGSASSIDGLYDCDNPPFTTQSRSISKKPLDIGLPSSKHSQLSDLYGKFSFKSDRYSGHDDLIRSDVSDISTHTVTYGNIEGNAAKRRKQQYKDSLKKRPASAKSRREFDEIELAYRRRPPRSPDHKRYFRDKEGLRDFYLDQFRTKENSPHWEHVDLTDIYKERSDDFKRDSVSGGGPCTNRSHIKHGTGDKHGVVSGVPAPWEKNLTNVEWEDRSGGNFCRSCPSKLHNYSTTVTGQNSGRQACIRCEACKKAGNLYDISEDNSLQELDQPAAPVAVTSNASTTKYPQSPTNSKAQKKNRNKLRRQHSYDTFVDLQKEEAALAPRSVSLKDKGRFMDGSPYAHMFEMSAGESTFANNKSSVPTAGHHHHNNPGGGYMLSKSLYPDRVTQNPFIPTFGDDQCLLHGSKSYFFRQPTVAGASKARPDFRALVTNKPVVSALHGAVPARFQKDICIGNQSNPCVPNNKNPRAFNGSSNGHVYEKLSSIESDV

Response Recovered (%) | SMILES
2 | CCOC(=O)Cn1c(C)nc2scc(-c3ccc(Cl)cc3)c2c1=O [Example 97, Ethyl 2-(5-(4-chlorophenyl)-2-methyl-4-oxothieno[2,3-d]pyrimidin-3(4H)-yl)acetate]
−1 | O=C(Cn1cnc2scc(-c3cc(C(F)(F)F)cc(C(F)(F)F)c3)c2c1=O)N1CCCC1 [Example 48, 5-[3,5-bis(trifluoromethyl)phenyl]-3-[2-oxo-2-(pyrrolidin-1-yl)ethyl]-3H,4H-thieno[2,3-d]pyrimidin-4-one]
45 | Cc1sc2ncn(CC(=O)N3CCCC3)c(=O)c2c1-c1ccc(F)c(Cl)c1 [Example 83, 5-(3-chloro-4-fluorophenyl)-6-methyl-3-[2-oxo-2-(pyrrolidin-1-yl)ethyl]-3H,4H-thieno[2,3-d]pyrimidin-4-one]
3 | O=C(Cn1cnc2scc(-c3cccc(F)c3)c2c1=O)N1CCCC1 [Example 31, 5-(3-fluorophenyl)-3-[2-oxo-2-(pyrrolidin-1-yl)ethyl]-3H,4H-thieno└2,3-d┘pyrimidin-4-one]
29 | O=C(Nn1cnc2scc(-c3ccc(Cl)c(C(F)(F)F)c3)c2c1=O)N1CCCC1 [Example 89, N-(5-(4-chloro-3-(trifluoromethyl)phenyl)-4-oxothieno[2,3-d]pyrimidin-3(4H)-yl)pyrrolidine-1-carboxamide]
16 | O=C(Cn1cnc2scc(-c3ccc(OC(F)(F)F)cc3)c2c1=O)N1CCCC1 [Example 34, 3-[2-oxo-2-(pyrrolidin-1-yl)ethyl]-5-[4-(trifluoromethoxy)phenyl]-3H,4H-thieno[2,3-d]pyrimidin-4-one]
−2 | O=C(Cn1c(C(F)(F)F)nc2scc(-c3ccc(Cl)cc3)c2c1=O)N1CCCC1C(F)(F)F (stereo not drawn) [Example 104, 5-(4-chlorophenyl)-3-(2-oxo-2-(2-(trifluoromethyl)pyrrolidin-1-yl)ethyl)-2-(trifluoromethyl)thieno[2,3-d]pyrimidin-4(3H)-one]
11 | O=C(Cn1cnc2scc(-c3cnc(F)c(Cl)c3)c2c1=O)N1CC(F)C(F)C1 (stereo not drawn) [Example 73, 5-(5-chloro-6-fluoropyridin-3-yl)-3-[2-(3,4-difluoropyrrolidin-1-yl)-2-oxoethyl]-3H,4H-thieno[2,3-d]pyrimidin-4-one]
3 | O=C(Cn1cnc2scc(-c3ccc(Cl)cc3)c2c1=O)NC1CCC1 [Example 9, 2-[5-(4-chlorophenyl)-4-oxo-3H,4H-thieno[2,3-d]pyrimidin-3-yl]-N-cyclobutylacetamide]
65 | O=C(Cn1cnc2scc(-c3ccc(F)c(Cl)c3)c2c1=O)N1CCC(F)C1 (stereo not drawn) [Example 58, 5-(3-chloro-4-fluorophenyl)-3-[2-(3-fluoropyrrolidin-1-yl)-2-oxoethyl]-3H,4H-thieno[2,3-d]pyrimidin-4-one]
71 | O=C(Cn1cnc2scc(-c3ccc(Cl)c(Cl)c3)c2c1=O)N1CC[C@@H](F)C1 [Example 68, 5-(3,4-dichlorophenyl)-3-{2-[(3R)-3-fluoropyrrolidin-1-yl]-2-oxoethyl}-3H,4H-thieno[2,3-d]pyrimidin-4-one]
3 | O=C(Cn1cnc2scc(-c3ccc(Cl)cc3)c2c1=O)N1CCOCC1 [Example 4, 5-(4-chlorophenyl)-3-[2-(morpholin-4-yl)-2-oxoethyl]-3H,4H-thieno└2,3-d┘pyrimidin-4-one]
19 | O=C(Cn1cnc2scc(-c3ccc(Cl)c(F)c3)c2c1=O)N1CCCC1 [Example 21, 5-(4-chloro-3-fluorophenyl)-3-(2-oxo-2-(pyrrolidin-1-yl)ethyl)thieno[2,3-d]pyrimidin-4(3H)-one]
5 | COc1ccc(-c2csc3ncn(CC(=O)N4CCCC4)c(=O)c23)cc1 [Example 41, 5-(4-methoxyphenyl)-3-[2-oxo-2-(pyrrolidin-1-yl)ethyl]-3H,4H-thieno[2,3-d]pyrimidin-4-one]
10 | Cc1sc2ncn(CC(=O)N3CCCC3C(F)(F)F)c(=O)c2c1-c1ccc(Cl)cc1 (stereo not drawn) [Example 80, 5-(4-chlorophenyl)-6-methyl-3-{2-oxo-2-[2-(trifluoromethyl)pyrrolidin-1-yl]ethyl}-3H,4H-thieno[2,3-d]pyrimidin-4-one]
−1 | O=C(Cn1cnc2scc(-c3ccnc(C(F)(F)F)c3)c2c1=O)N1CCCC1 [Example 46, 3-[2-oxo-2-(pyrrolidin-1-yl)ethyl]-5-[2-(trifluoromethyl)pyridin-4-yl]-3H,4H-thieno[2,3-d]pyrimidin-4-one]
34 | O=C(Cn1cnc2sc(-c3ccc(Cl)cc3)cc2c1=O)NC1CC1 [Example 76, 2-[6-(4-chlorophenyl)-4-oxo-3H,4H-thieno[2,3-d]pyrimidin-3-yl]-N-cyclopropylacetamide]
1 | O=C(Cn1cnc2scc(-c3ccc(C(F)(F)F)cc3)c2c1=O)N1CCCCC1 [Example 26, 3-[2-oxo-2-(piperidin-1-yl)ethyl]-5-[4-(trifluoromethyl)phenyl]-3H,4H-thieno[2,3-d]pyrimidin-4-one]
